From patent US10933051B2, “Carbapenem compounds and compositions for the treatment of bacterial infections” (FOB Synthesis, Inc., priority 2017, dated 2021)

Key:
Experiment in all cases: Antimicrobial Susceptibility Test (CLSI), Test Example 2
Assay type in all cases: cell-based
Design in all cases: unit not given here
A. baumannii FSAb-056 = settings: Table 4; strain produces OXA-23, OXA-51
Experimental: (§1) Antimicrobial Susceptibility Test was performed by the CLSI (Clinical and Laboratory Standards Institute) methods. The agar dilution method for determining antimicrobial susceptibility was carried out using Mueller Hinton-II agar and the amount of inoculation was 10^4CFU/spot. Broth dilution tests were performed using the Mueller Hinton-II broth. All assays were run with the indicated control strains, available from the ATCC (American Type Culture Collection, Rockville, Md.).

E. coli FSEco-054 = settings: Table 4; strain produces ESBL
Experimental: as §1

A. baumannii FSAb-029 = settings: Table 4; strain produces OXA-2, IMP-1
Experimental: as §1

A. baumannii FSAb-039 = settings: Table 4; strain produces OXA-51
Experimental: as §1

[1] = test system: K. pneumoniae ATCC BAA-1904; settings: Table 4; strain produces KPC-3
Experimental: as §1

A. baumannii FSAb-065 = settings: Table 4; strain produces OXA-2, VIM-2
Experimental: as §1

P. aeruginosa FSPa-121 = settings: Table 4; strain produces OXA-17
Experimental: as §1

SMILES: C[C@@H](O)[C@H]1C(=O)N2C(C(=O)[O-])=C(C[N+]3(CCNC(=O)c4ccc(O)c(O)c4F)CCCC3)[C@H](C)[C@H]12 [Compound 42]
- antimicrobial susceptibility, A. baumannii FSAb-056 (A. baumannii FSAb-056): 16
- antimicrobial susceptibility, E. coil FSEco-054 (E. coli FSEco-054): 2
- antimicrobial susceptibility, A. baumannii FSAb-029 (A. baumannii FSAb-029): 4
- antimicrobial susceptibility, A. baumannii FSAb-039 (A. baumannii FSAb-039): 8
- antimicrobial susceptibility, K. pneumoniae BAA-1904 [1]: 16

SMILES: C[C@@H](O)[C@H]1C(=O)N2C(C(=O)O)=C(CN3C[C@@H](NC(=O)c4ccc(O)c(O)c4Cl)C[C@H]3C(N)=O)[C@H](C)[C@H]12 [Compound 32]
- antimicrobial susceptibility, A. baumannii FSAb-056 (A. baumannii FSAb-056): 16
- antimicrobial susceptibility, E. coil FSEco-054 (E. coli FSEco-054): 4
- antimicrobial susceptibility, A. baumannii FSAb-065 (A. baumannii FSAb-065): 1
- antimicrobial susceptibility, A. baumannii FSAb-029 (A. baumannii FSAb-029): 2
- antimicrobial susceptibility, A. baumannii FSAb-039 (A. baumannii FSAb-039): >32
- antimicrobial susceptibility, K. pneumoniae BAA-1904 [1]: >32
- antimicrobial susceptibility, P. aeruginosa FSPa-121 (P. aeruginosa FSPa-121): 1

SMILES: C[C@@H](O)[C@H]1C(=O)N2C(C(=O)O)=C(CN3C[C@@H](O)[C@H](NC(=O)c4ccc(O)c(O)c4Cl)C3)[C@H](C)[C@H]12 [Compound 31]
- antimicrobial susceptibility, A. baumannii FSAb-056 (A. baumannii FSAb-056): 4
- antimicrobial susceptibility, E. coil FSEco-054 (E. coli FSEco-054): 2
- antimicrobial susceptibility, A. baumannii FSAb-065 (A. baumannii FSAb-065): 0.5
- antimicrobial susceptibility, A. baumannii FSAb-029 (A. baumannii FSAb-029): 2
- antimicrobial susceptibility, A. baumannii FSAb-039 (A. baumannii FSAb-039): 4
- antimicrobial susceptibility, K. pneumoniae BAA-1904 [1]: 32
- antimicrobial susceptibility, P. aeruginosa FSPa-121 (P. aeruginosa FSPa-121): 2

SMILES: C[C@@H](O)[C@H]1C(=O)N2C(C(=O)O)=C(CN3CCCC3CNC(=O)c3ccc(O)c(O)c3Cl)[C@H](C)[C@H]12 (stereo partly drawn) [Compound 34]
- antimicrobial susceptibility, A. baumannii FSAb-056 (A. baumannii FSAb-056): 8
- antimicrobial susceptibility, E. coil FSEco-054 (E. coli FSEco-054): 2
- antimicrobial susceptibility, A. baumannii FSAb-065 (A. baumannii FSAb-065): 8
- antimicrobial susceptibility, A. baumannii FSAb-029 (A. baumannii FSAb-029): 2
- antimicrobial susceptibility, A. baumannii FSAb-039 (A. baumannii FSAb-039): 8
- antimicrobial susceptibility, K. pneumoniae BAA-1904 [1]: >32
- antimicrobial susceptibility, P. aeruginosa FSPa-121 (P. aeruginosa FSPa-121): 8

SMILES: C[C@@H](O)[C@H]1C(=O)N2C(C(=O)O)=C(CN(C)CCCNC(=O)c3ccc(O)c(O)c3Cl)[C@H](C)[C@H]12 [Compound 17]
- antimicrobial susceptibility, A. baumannii FSAb-056 (A. baumannii FSAb-056): 4
- antimicrobial susceptibility, E. coil FSEco-054 (E. coli FSEco-054): 2
- antimicrobial susceptibility, A. baumannii FSAb-065 (A. baumannii FSAb-065): 2
- antimicrobial susceptibility, A. baumannii FSAb-029 (A. baumannii FSAb-029): 2
- antimicrobial susceptibility, A. baumannii FSAb-039 (A. baumannii FSAb-039): 8
- antimicrobial susceptibility, K. pneumoniae BAA-1904 [1]: 32
- antimicrobial susceptibility, P. aeruginosa FSPa-121 (P. aeruginosa FSPa-121): 4

SMILES: Cc1c(C(=O)NCCN(C)CC2=C(C(=O)O)N3C(=O)[C@H]([C@@H](C)O)[C@H]3[C@H]2C)ccc(O)c1O [Compound 4]
- antimicrobial susceptibility, A. baumannii FSAb-056 (A. baumannii FSAb-056): 8
- antimicrobial susceptibility, E. coil FSEco-054 (E. coli FSEco-054): 8
- antimicrobial susceptibility, A. baumannii FSAb-065 (A. baumannii FSAb-065): 4
- antimicrobial susceptibility, A. baumannii FSAb-029 (A. baumannii FSAb-029): 8
- antimicrobial susceptibility, A. baumannii FSAb-039 (A. baumannii FSAb-039): 8
- antimicrobial susceptibility, K. pneumoniae BAA-1904 [1]: 16
- antimicrobial susceptibility, P. aeruginosa FSPa-121 (P. aeruginosa FSPa-121): 8

SMILES: C[C@@H](O)[C@H]1C(=O)N2C(C(=O)O)=C(CN3CC(NC(=O)c4ccc(O)c(O)c4F)[C@@H](O)C3)[C@H](C)[C@H]12 (stereo partly drawn) [Compound 36]
- antimicrobial susceptibility, A. baumannii FSAb-056 (A. baumannii FSAb-056): 8
- antimicrobial susceptibility, E. coil FSEco-054 (E. coli FSEco-054): 4
- antimicrobial susceptibility, A. baumannii FSAb-029 (A. baumannii FSAb-029): 4
- antimicrobial susceptibility, A. baumannii FSAb-039 (A. baumannii FSAb-039): 4
- antimicrobial susceptibility, K. pneumoniae BAA-1904 [1]: 32

SMILES: C[C@@H](O)[C@H]1C(=O)N2C(C(=O)O)=C(CN(C)CCNC(=O)c3ccc(O)c(O)c3C(F)(F)F)[C@H](C)[C@H]12 [Compound 3]
- antimicrobial susceptibility, A. baumannii FSAb-056 (A. baumannii FSAb-056): 4
- antimicrobial susceptibility, E. coil FSEco-054 (E. coli FSEco-054): 4
- antimicrobial susceptibility, A. baumannii FSAb-065 (A. baumannii FSAb-065): 2
- antimicrobial susceptibility, A. baumannii FSAb-029 (A. baumannii FSAb-029): 4
- antimicrobial susceptibility, A. baumannii FSAb-039 (A. baumannii FSAb-039): 4
- antimicrobial susceptibility, K. pneumoniae BAA-1904 [1]: 32
- antimicrobial susceptibility, P. aeruginosa FSPa-121 (P. aeruginosa FSPa-121): 4

SMILES: C[C@@H](O)[C@H]1C(=O)N2C(C(=O)[O-])=C(C[N+](C)(C)CCNC(=O)c3ccc(O)c(O)c3F)[C@H](C)[C@H]12 [Compound 41]
- antimicrobial susceptibility, A. baumannii FSAb-056 (A. baumannii FSAb-056): 32
- antimicrobial susceptibility, E. coil FSEco-054 (E. coli FSEco-054): 4
- antimicrobial susceptibility, A. baumannii FSAb-029 (A. baumannii FSAb-029): 8
- antimicrobial susceptibility, A. baumannii FSAb-039 (A. baumannii FSAb-039): 16
- antimicrobial susceptibility, K. pneumoniae BAA-1904 [1]: 8
